Reference: patent US20250346580A1, “NOVEL PYRIMIDINYL SULFONAMIDE DERIVATIVES” (Hoffmann-La Roche Inc., priority 2023, published 2025)

How the values were obtained:
[1] = Microsome clearance assay, human; type: in vitro ADME; conditions: human microsomes 0.5 mg/mL plus NADPH, 37° C., test compound 1 microM; first value of cell
Method: (§1) Microsome Clearance Assay Protocol:
(§2) incubations at a test compound of […] in microsomes (0.5 mg/mL) plus cofactor NADPH are performed in 96 well plates at 37° C. on a TECAN (Tecan Group Ltd, Switzerland) automated liquid handling system. The final concentration of the test compound in the incubation is 1 microM. After a 10 minutes preincubation step of the test compound with the microsomes, the enzymatic reaction is started by the addition of cofactors. At 1, 3, 6, 9, 15, 25, 35 and 45 minutes, aliquots of the incubations are removed and quenched with 1:3 (v/v) acetonitrile containing internal standards. Samples are then cooled and centrifuged before analysis of the supernatant by LC-MS/MS.
(§3) Reference compounds were tested against exemplified compounds for their Microsome Clearance.

[2] = Microsome clearance assay, mouse; type: in vitro ADME; conditions: mouse microsomes 0.5 mg/mL plus NADPH, 37° C., test compound 1 microM; second value of cell
Method: as §1, §2, §3

[3] = Microsome clearance assay, rat; type: in vitro ADME; conditions: rat microsomes 0.5 mg/mL plus NADPH, 37° C., test compound 1 microM; third value of cell
Method: as §1, §2, §3

[4] = molecular target: human GPR17 short isoform (Homo sapiens, UniProt Q13304); test: GPR17 cAMP assay (hGPR17 cAMP); type: cell-based; conditions: CHO-K1 cells stably expressing human GPR17 short isoform; antagonist mode with EC80 of MDL29,951, forskolin 15 μM, TR-FRET cAMP
Method: GPR17 cAMP Assay Protocol:
CHO-K1 cells stably expressing vector containing untagged human GPR17 short isoform (Roche) were cultured at 37° C./5% CO2 in DMEM (Dulbecco's Modified Eagle Medium):F-12 (1:1) supplemented with 10% foetal bovine serum and 400 μg/ml Geneticin.
Changes in intracellular cyclic adenosine monophosphate (cAMP) levels were quantified using the Nano-TRF Detection Assay kit (Roche Diagnostics, Cat. No. 05214386001). This assay allows for direct cAMP quantification in a homogeneous solution. cAMP is detected based on time-resolved fluorescence energy transfer (TR-FRET) and competitive binding of ruthenylated cAMP and endogenous cAMP to an anti-cAMP monoclonal antibody labeled with AlexaFluor-700. The Ruthenium complex serves as the FRET donor and transfers energy to AlexaFluor-700. The FRET signal is inversely proportional to the cAMP concentration.
CHO-GPR17S cells were detached with Accutase and resuspended in assay buffer consisting of Hank's Balanced Salt Solution (HBSS), 10 mM HEPES (4-(2-hydroxyethyl) piperazine-1-ethanesulfonic acid solution) and 0.1% bovine serum albumin (pH 7.4). The cells were seeded in black 384-well plates (Corning) at a density of 10'000 cells/20 μl assay buffer until the addition of compounds.
Test antagonist compounds were serially diluted in dimethyl sulfoxide (DMSO) and spotted in 384-well plates. The compounds were then diluted in HBSS buffer supplemented with an EC80 concentration of MDL29,951 (3-(2-Carboxy-4,6-dichloroindol-3-yl)propionic acid) (GPR17 agonist) plus 3-Isobutyl-1-methylxanthine (IBMX) (0.5 mM final concentration) and added to the cells at room temperature. Forskolin (15 μM final concentration) was added 5 minutes after the test compounds and the cells were incubated at room temperature for 30 minutes. The assay was stopped by adding cAMP detection mix (containing detergents for cell lysis) for 90 minutes at room temperature.
Cellular cAMP was measured using a Paradigm reader (Molecular Devices). The raw data was used to calculate the FRET signal based on the assay's P-factor as per cAMP kit instructions. The data was normalized to the maximal activity of a reference antagonist and dose response curves were fitted to the percent activity of the test compounds using a sigmoidal dose response model (Genedata Screener).

Chain of human GPR17 short isoform (Q13304 29-367): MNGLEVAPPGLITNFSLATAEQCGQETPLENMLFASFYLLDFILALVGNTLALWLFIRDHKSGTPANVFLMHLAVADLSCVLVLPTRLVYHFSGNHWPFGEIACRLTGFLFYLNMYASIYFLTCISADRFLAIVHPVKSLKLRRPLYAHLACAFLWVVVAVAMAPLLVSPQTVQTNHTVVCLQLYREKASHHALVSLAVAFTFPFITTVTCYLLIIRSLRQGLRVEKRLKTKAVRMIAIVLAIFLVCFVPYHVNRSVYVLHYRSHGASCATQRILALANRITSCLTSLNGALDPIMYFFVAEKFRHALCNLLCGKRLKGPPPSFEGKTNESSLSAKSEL

SMILES: O=S(=O)(Nc1cc(F)c(Br)cc1F)c1c[nH]c(-c2ncccc2F)c1 [RE-C]
- microsomal CLint at 1 µM [1]: 107 µL/min/mg
- microsomal CLint at 1 µM [2]: 238 µL/min/mg
- microsomal CLint at 1 µM [3]: 582 µL/min/mg

SMILES: O=S(=O)(Nc1cc(F)c(OC(F)F)cc1F)c1c[nH]c(-c2nccs2)c1 [RE-D]
- microsomal CLint at 1 µM [1]: 10 µL/min/mg
- microsomal CLint at 1 µM [2]: 35 µL/min/mg
- microsomal CLint at 1 µM [3]: 207 µL/min/mg

SMILES: COc1nc(NS(=O)(=O)c2c[nH]c(-c3nccs3)c2)nc(OC)c1OC(F)F [Example 14, N-[5-(difluoromethoxy)-4,6-dimethoxy-pyrimidin-2-yl]-5-thiazol-2-yl-1H-pyrrole-3-sulfonamide]
- Microsomal Clearance human [1]: 10 μL/min/mg protein
- Microsomal Clearance mouse [2]: 10 μL/min/mg protein
- Microsomal Clearance rat [3]: 50 μL/min/mg protein
- IC50 [4]: 256 nM

SMILES: COc1nc(NS(=O)(=O)c2c[nH]c(-c3ccccc3)c2)nc(OC)c1OCC(F)F [Example 1, N-[5-(2,2-difluoroethoxy)-4,6-dimethoxy-pyrimidin-2-yl]-5-phenyl-1H-pyrrole-3-sulfonamide]
- Microsomal Clearance human [1]: 10 μL/min/mg protein
- Microsomal Clearance mouse [2]: 21 μL/min/mg protein
- Microsomal Clearance rat [3]: 81 μL/min/mg protein
- IC50 [4]: 476 nM

SMILES: COc1nc(OCC(F)F)c(F)nc1NS(=O)(=O)c1c[nH]c(-c2ccccc2)c1 [RE-A]
- microsomal CLint at 1 µM [1]: 21 µL/min/mg
- microsomal CLint at 1 µM [2]: 136 µL/min/mg
- microsomal CLint at 1 µM [3]: 489 µL/min/mg

SMILES: COc1nc(NS(=O)(=O)c2c[nH]c(-c3ncccc3F)c2)nc(OC)c1OCCF [Example 7, N-[5-(2-fluoroethoxy)-4,6-dimethoxy-pyrimidin-2-yl]-5-(3-fluoro-2-pyridyl)-1H-pyrrole-3-sulfonamide]
- Microsomal Clearance human [1]: 10 μL/min/mg protein
- Microsomal Clearance mouse [2]: 12 μL/min/mg protein
- Microsomal Clearance rat [3]: 32 μL/min/mg protein
- IC50 [4]: 85 nM

SMILES: COc1nc(NS(=O)(=O)c2c[nH]c(-c3cccn(C)c3=O)c2)nc(OC)c1OCC(F)F [Example 41, N-[5-(2,2-difluoroethoxy)-4,6-dimethoxy-pyrimidin-2-yl]-5-(2-keto-1-methyl-3-pyridyl)-1H-pyrrole-3-sulfonamide]
- IC50 [4]: 1420 nM

SMILES: COc1nc(NS(=O)(=O)c2c[nH]c(-c3ccccn3)c2)nc(OC)c1CC(F)F [Example 17, N-[5-(2,2-difluoroethyl)-4,6-dimethoxy-pyrimidin-2-yl]-5-(2-pyridyl)-1H-pyrrole-3-sulfonamide]
- IC50 [4]: 133 nM

SMILES: COc1nc(NS(=O)(=O)c2c[nH]c(-c3ncc(C)s3)c2)nc(OC)c1OCC(F)F [Example 44, N-[5-(2,2-difluoroethoxy)-4,6-dimethoxy-pyrimidin-2-yl]-5-(5-methylthiazol-2-yl)-1H-pyrrole-3-sulfonamide]
- IC50 [4]: 2670 nM

SMILES: COc1nc(NS(=O)(=O)c2c[nH]c(-c3nccs3)c2)nc(OC)c1C1CC1C#N (stereo not drawn) [Example 35, N-[5-(2-cyanocyclopropyl)-4,6-dimethoxy-pyrimidin-2-yl]-5-thiazol-2-yl-1H-pyrrole-3-sulfonamide]
- IC50 [4]: 170 nM

SMILES: COc1nc(NS(=O)(=O)c2c[nH]c(-c3ncccc3F)c2)nc(OC)c1CCC#N [Example 23, N-[5-(2-cyanoethyl)-4,6-dimethoxy-pyrimidin-2-yl]-5-(3-fluoro-2-pyridyl)-1H-pyrrole-3-sulfonamide]
- IC50 [4]: 45 nM

SMILES: COc1nc(NS(=O)(=O)c2c[nH]c(-c3cscn3)c2)nc(OC)c1OCCF [Example 25, N-[5-(2-fluoroethoxy)-4,6-dimethoxy-pyrimidin-2-yl]-5-thiazol-4-yl-1H-pyrrole-3-sulfonamide]
- IC50 [4]: 916 nM

SMILES: COc1nc(NS(=O)(=O)c2c[nH]c(-c3ccccc3)c2)nc(OC)c1CC(F)F [Example 12, N-[5-(2,2-difluoroethyl)-4,6-dimethoxy-pyrimidin-2-yl]-5-phenyl-1H-pyrrole-3-sulfonamide]
- IC50 [4]: 169 nM

SMILES: COc1nc(NS(=O)(=O)c2c[nH]c(-c3ccccn3)c2)nc(OC)c1OCC(F)F [Example 19, N-[5-(2,2-difluoroethoxy)-4,6-dimethoxy-pyrimidin-2-yl]-5-(2-pyridyl)-1H-pyrrole-3-sulfonamide]
- IC50 [4]: 182 nM

SMILES: COc1nc(NS(=O)(=O)c2c[nH]c(-c3cscn3)c2)nc(OC)c1OCC(F)F [Example 26, N-[5-(2,2-difluoroethoxy)-4,6-dimethoxy-pyrimidin-2-yl]-5-thiazol-4-yl-1H-pyrrole-3-sulfonamide]
- IC50 [4]: 724 nM

SMILES: COc1nc(NS(=O)(=O)c2c[nH]cc2Cc2ccccc2)nc(OC)c1OCC(F)F [Example 30, 4-benzyl-N-[5-(2,2-difluoroethoxy)-4,6-dimethoxy-pyrimidin-2-yl]-1H-pyrrole-3-sulfonamide]
- IC50 [4]: 1860 nM

SMILES: COc1nc(NS(=O)(=O)c2c[nH]c(-c3nc(C)cs3)c2)nc(OC)c1OC(F)F [Example 32, N-[5-(difluoromethoxy)-4,6-dimethoxy-pyrimidin-2-yl]-5-(4-methylthiazol-2-yl)-1H-pyrrole-3-sulfonamide]
- IC50 [4]: 523 nM

SMILES: [2H]C([2H])(c1cccc(F)c1)c1c[nH]cc1S(=O)(=O)Nc1nc(OC)c(OCC(F)F)c(OC)n1 [Example 29, 4-[dideuterio-(3-fluorophenyl)methyl]-N-[5-(2,2-difluoroethoxy)-4,6-dimethoxy-pyrimidin-2-yl]-1H-pyrrole-3-sulfonamide]
- IC50 [4]: 964 nM

SMILES: COc1nc(NS(=O)(=O)c2c[nH]c(-c3ccccn3)c2)nc(OC)c1OCCF [Example 27, N-[5-(2-fluoroethoxy)-4,6-dimethoxy-pyrimidin-2-yl]-5-(2-pyridyl)-1H-pyrrole-3-sulfonamide]
- IC50 [4]: 127 nM

SMILES: N#Cc1ccc(NS(=O)(=O)c2c[nH]c(-c3ncccc3F)c2)c(F)c1 [RE-B]
- microsomal CLint at 1 µM [1]: 253 µL/min/mg
- microsomal CLint at 1 µM [2]: 43 µL/min/mg
- microsomal CLint at 1 µM [3]: 79 µL/min/mg

SMILES: COc1nc(NS(=O)(=O)c2c[nH]c(-c3nc(C)cs3)c2)nc(OC)c1OCC(F)F [Example 33, N-[5-(2,2-difluoroethoxy)-4,6-dimethoxy-pyrimidin-2-yl]-5-(4-methylthiazol-2-yl)-1H-pyrrole-3-sulfonamide]
- IC50 [4]: 283 nM

SMILES: COc1nc(NS(=O)(=O)c2c[nH]c(-c3ccsn3)c2)nc(OC)c1OCC(F)F [Example 11, N-[5-(2,2-difluoroethoxy)-4,6-dimethoxy-pyrimidin-2-yl]-5-isothiazol-3-yl-1H-pyrrole-3-sulfonamide]
- IC50 [4]: 142 nM
